Several values for one entry are separate records, joined by “and”; a condition that tells them apart may be missing. Equal entries are not always repeated. Entries after “also recorded” stand apart in the source; their conditions may differ. One block for each compound: values may come before it.
Tests used:
[1] = system: maximal electroshock seizure (MES) model; design: method as in PMID 33325568; conditions: administrated combined with H3R agonist RAMH; cited from earlier work
H3R = H3R (Homo sapiens, UniProt Q9Y5N1); assay: CRE luciferase reporter assay for H3R antagonistic activity; format: cell-based
Procedure: Firstly, all the target compounds were screened at 5 μM and 50 μM. […] The detailed experimental operations refer to the previous paper.

[2] = system: maximal electroshock seizure (MES) model; assay: Maximal electroshock seizure (MES) model; format: in vivo; conditions: mice; for Protection in MES model at lowest dosage: 3 mg/kg, compared to control (saline); for Duration of tonic hind limb extension (THLE), protection in MES model: i.p., compared to control group; for Dose dependence of protection in MES model: doses of 3, 10 and 30 mg/kg
Procedure: One of the two test models is the MES seizure model, another is the PTZ-induced seizure model. […] In addition, the administration of this dosage can minimize the impact of other possible side effects such as central inhibition and cardiac toxicity. […] In addition, the tested dose of VPA was 300 mg/kg. It could be seen that all animals in the control group experienced hindlimb stiffness after the electrical stimulation in the MES model. In the treated group, the definition of protection was the reduction or vanishing of the tonic hind limb extension (THLE) in mice. […] The neurological safety of the compounds 2h, 4a, and 4b was evaluated by the rotarod test. In the MES test, the definition of protection was the reduction or vanishing of the THLE in mice. In the PTZ test, the seizures were induced through the subcutaneous administration of PTZ (85 mg/kg). The antiseizure activities of the compounds in the PTZ test were evaluated by comparing the convulsion scores in mice between taking the compounds or not. VPA and PIT were used as positive drugs. To explore the anticonvulsive mechanism, compound 4a (10 mg/kg) was co-injected with RAMH (10 mg/kg). In addition, the THLE was recorded and compared with that of the mice treated by compound 4a alone. The detailed experimental operations in the MES, PTZ, and rotarod tests refer to our previous paper. All the animal experiments were carried out on 4-week-old KunMing male mice weighing from 20 to 25 g. The mice were housed collectively in polycarbonate cages in groups of 30, where they were maintained on a 12 h light/dark cycle in a temperature controlled (25 ± 2 °C) laboratory with free access to food and water. In the MES and PTZ models, seven animals were used in each group. In the rotarod test, three animals were used in each group. Each animal was used only once. All the experiments referring to animals were applied according to the Guide for the Care and Use of Laboratory Animals and were approved by the Medical Ethics Committee of Jinggangshan University, approval number: 220811002.

[3] = Rotarod test for neurotoxicity; format: in vivo; conditions: mice; for Death of treated animals: 300 mg/kg; for Neurotoxicity: rotarod test, i.p., three animals per group
Procedure: A rotarod test was carried out to estimate the neurological safety of compounds 2h, 4a, and 4b.
The neurological safety of the compounds 2h, 4a, and 4b was evaluated by the rotarod test. In the MES test, the definition of protection was the reduction or vanishing of the THLE in mice. In the PTZ test, the seizures were induced through the subcutaneous administration of PTZ (85 mg/kg). The antiseizure activities of the compounds in the PTZ test were evaluated by comparing the convulsion scores in mice between taking the compounds or not. VPA and PIT were used as positive drugs. To explore the anticonvulsive mechanism, compound 4a (10 mg/kg) was co-injected with RAMH (10 mg/kg). In addition, the THLE was recorded and compared with that of the mice treated by compound 4a alone. The detailed experimental operations in the MES, PTZ, and rotarod tests refer to our previous paper. All the animal experiments were carried out on 4-week-old KunMing male mice weighing from 20 to 25 g. The mice were housed collectively in polycarbonate cages in groups of 30, where they were maintained on a 12 h light/dark cycle in a temperature controlled (25 ± 2 °C) laboratory with free access to food and water. In the MES and PTZ models, seven animals were used in each group. In the rotarod test, three animals were used in each group. Each animal was used only once. All the experiments referring to animals were applied according to the Guide for the Care and Use of Laboratory Animals and were approved by the Medical Ethics Committee of Jinggangshan University, approval number: 220811002.

[4] = system: PTZ-induced seizure model; assay: Pentylenetetrazole (PTZ)-induced seizure model; format: in vivo; conditions: mice, 300 mg/kg, i.p.; PTZ 85 mg/kg s.c.
Procedure: One of the two test models is the MES seizure model, another is the PTZ-induced seizure model. […] In addition, the administration of this dosage can minimize the impact of other possible side effects such as central inhibition and cardiac toxicity. […] In addition, the tested dose of VPA was 300 mg/kg. The PTZ model was usually used to screen the antiepileptic candidates for the absence of seizures. In this work, compounds 2a-2i, 3a-3c, and 4a-4b were also evaluated for their antiseizure action in the PTZ model in mice, while using VPA as the positive drug. […] The failure of synthesized compounds in the PTZ model is expected because our previously reported H3R inhibitors were also ineffective in the PTZ model. […] A considerable increase in histamine levels was found in the brain after MES-induced seizures, whereas a tendency toward a decrease in histamine levels was observed after PTZ-kindled convulsions. […] The neurological safety of the compounds 2h, 4a, and 4b was evaluated by the rotarod test. In the MES test, the definition of protection was the reduction or vanishing of the THLE in mice. […] The antiseizure activities of the compounds in the PTZ test were evaluated by comparing the convulsion scores in mice between taking the compounds or not. […] In addition, the THLE was recorded and compared with that of the mice treated by compound 4a alone. […]

Chain of H3R (Q9Y5N1 whole entry, species assumed): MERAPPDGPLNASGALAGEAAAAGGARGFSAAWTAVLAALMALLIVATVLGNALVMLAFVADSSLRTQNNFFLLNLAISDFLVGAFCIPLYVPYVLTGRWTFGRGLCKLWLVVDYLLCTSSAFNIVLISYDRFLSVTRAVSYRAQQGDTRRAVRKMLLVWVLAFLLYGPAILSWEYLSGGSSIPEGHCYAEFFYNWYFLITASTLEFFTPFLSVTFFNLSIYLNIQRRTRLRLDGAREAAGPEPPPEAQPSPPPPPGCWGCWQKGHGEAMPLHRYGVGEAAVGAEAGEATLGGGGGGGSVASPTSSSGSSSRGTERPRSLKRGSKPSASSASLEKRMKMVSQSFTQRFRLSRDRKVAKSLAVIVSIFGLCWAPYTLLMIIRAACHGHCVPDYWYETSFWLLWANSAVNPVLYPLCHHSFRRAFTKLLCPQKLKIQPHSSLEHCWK

melting point: 150 to 151 °C
IC50 (H3R): > 50 µM
Structure (SMILES): O=C1CCc2cc(OCCCCCN3CCCCC3)ccc2N1 [Compound 3c, 6-((5-(Piperidin-1-yl)pentyl)oxy)-3,4-dihydroquinolin-2(1H)-one]

melting point: 147 to 149 °C
IC50 (H3R): 7.49 µM
Structure (SMILES): O=C1CCc2cc(OCCN3CCCCC3)ccc2N1 [Compound 3a, 6-(2-(Piperidin-1-yl)ethoxy)-3,4-dihydroquinolin-2(1H)-one]

The remaining lines, values behind:

Structure (SMILES): Cc1nc(-c2ccc(OCCCN3CCCCC3)cc2)co1 [I]
Antiseizure activity in MES test when combined with RAMH [1]: completely vanished

Structure (SMILES): O=C1CCc2cc(OCCCN3CCCCC3)ccc2N1 [Compound 2h, 6-(3-(Piperidin-1-yl)propoxy)-3,4-dihydroquinolin-2(1H)-one]
IC50 (H3R): 0.12 µM
Protection in MES model at lowest dosage [2]: no significant difference
Duration of tonic hind limb extension (THLE), protection in MES model ([2]; 10 mg/kg, 10 mg/kg): decreased the duration of THLE significantly; also recorded: antiseizure activity
Dose dependence of protection in MES model [2]: dose-dependent manner
Death of treated animals [3]: all animals
Neurotoxicity ([3]; 10 mg/kg): 0/3
Neurotoxicity ([3]; 30 mg/kg): 0/3
Neurotoxicity ([3]; 100 mg/kg, 100 mg/kg): one mouse in three and 1/3

Structure (SMILES): O=C1CCc2cc(OCCCN3CCNCC3)ccc2N1 [Compound 2d, 6-(3-(Piperazin-1-yl)propoxy)-3,4-dihydroquinolin-2(1H)-one]
melting point: 150 to 151 °C
IC50 (H3R): > 50 µM

Structure (SMILES): O=C1CCc2cc(OCCCN3CCN(c4ccccc4)CC3)ccc2N1 [Compound 2f, 6-(3-(4-Phenylpiperazin-1-yl)propoxy)-3,4-dihydroquinolin-2(1H)-one]
melting point: 199 to 201 °C
IC50 (H3R): 25.6 µM

Structure (SMILES): CCCCCN1C(=O)CCc2cc(OCCCN3CCCCC3)ccc21 [Compound 4b, 1-Pentyl-6-(3-(piperidin-1-yl)propoxy)-3,4-dihydroquinolin-2(1H)-one]
IC50 (H3R): 1.91 µM
Protection in MES model at lowest dosage [2]: no significant difference
Duration of tonic hind limb extension (THLE), protection in MES model ([2]; 10 mg/kg, 10 mg/kg): decreased the duration of THLE significantly; also recorded: antiseizure activity
Dose dependence of protection in MES model [2]: dose-dependent manner
Death of treated animals [3]: two-thirds of mice
Neurotoxicity ([3]; 10 mg/kg): 0/3
Neurotoxicity ([3]; 30 mg/kg): 0/3
Neurotoxicity ([3]; 100 mg/kg, 100 mg/kg): no neurotoxicity and 0/3

Structure (SMILES): CCCN(CCC)CCCOc1ccc2c(c1)CCC(=O)N2.Cl [Compound 2b, 6-(3-(Dipropylamino)propoxy)-3,4-dihydroquinolin-2(1H)-one hydrochloride]
melting point: 57 to 59 °C
IC50 (H3R): > 50 µM

Structure (SMILES): O=C1CCc2cc(OCCCCN3CCCCC3)ccc2N1 [Compound 3b, 6-(4-(Piperidin-1-yl)butoxy)-3,4-dihydroquinolin-2(1H)-one]
melting point: 150 to 151 °C
IC50 (H3R): 2.88 µM

Structure (SMILES): CCN(CC)CCCOc1ccc2c(c1)CCC(=O)N2 [Compound 2a, 6-(3-(Diethylamino)propoxy)-3,4-dihydroquinolin-2(1H)-one hydrochioride]
melting point: 68 to 70 °C
IC50 (H3R): 0.52 µM
Duration of tonic hind limb extension (THLE), protection in MES model ([2]; 10 mg/kg): no significant difference

Structure (SMILES): CCCN1C(=O)CCc2cc(OCCCN3CCCCC3)ccc21 [Compound 4a, 6-(3-(Piperidin-1-yl)propoxy)-1-propyl-3,4-dihydroquinolin-2(1H)-one]
IC50 (H3R): 0.37 µM
Protection in MES model at lowest dosage [2]: no significant difference
Duration of THLE in MES model when combined with H3R agonist RAMH ([2]; 10 mg/kg i.p., co-injected with RAMH 10 mg/kg i.p.): fully vanished; also recorded: cannot decrease the duration of THLE
Duration of tonic hind limb extension (THLE), protection in MES model ([2]; 10 mg/kg, 10 mg/kg): decreased the duration of THLE significantly; also recorded: antiseizure activity
Dose dependence of protection in MES model [2]: dose-dependent manner
Death of treated animals [3]: two-thirds of mice
Neurotoxicity ([3]; 10 mg/kg): 0/3
Neurotoxicity ([3]; 30 mg/kg): 0/3
Neurotoxicity ([3]; 100 mg/kg, 100 mg/kg): no neurotoxicity and 0/3

Structure (SMILES): O=C1CCc2cc(OCCCN3CCC(c4ccccc4)CC3)ccc2N1 [Compound 2i, 6-(3-(4-Phenylpiperidin-1-yl)propoxy)-3,4-dihydroquinolin-2(1H)-one]
melting point: 174 to 176 °C
IC50 (H3R): 38.5 µM

Structure (SMILES): O=C1CCc2cc(OCCCN3CCCC3)ccc2N1 [Compound 2c, 6-(3-(Pyrrolidin-1-yl)propoxy)-3,4-dihydroquinolin-2(1H)-one hydrochioride]
melting point: 120 to 122 °C
IC50 (H3R): 0.47 µM
Duration of tonic hind limb extension (THLE), protection in MES model ([2]; 10 mg/kg): no significant difference

Structure (SMILES): CCCC(CCC)C(=O)[O-].[Na+] [VPA, valproic sodium, reference compound]
Duration of tonic hind limb extension (THLE), protection in MES model ([2]; 300 mg/kg): decreased the duration of THLE significantly
Protection against seizures induced by PTZ (seizure score) [4]: fully inhibited the seizure induced by PTZ

Structure (SMILES): CN1CCN(CCCOc2ccc3c(c2)CCC(=O)N3)CC1 [Compound 2e, 6-(3-(4-Methylpiperazin-1-yl)propoxy)-3,4-dihydroquinolin-2(1H)-one]
melting point: 159 to 160 °C
IC50 (H3R): 38.1 µM

Structure (SMILES): O=C1CCc2cc(OCCCN3CCOCC3)ccc2N1 [Compound 2g, 6-(3-(Morpholino)propoxy)-3,4-dihydroquinolin-2(1H)-one]
melting point: 146 to 147 °C
IC50 (H3R): 46 µM
